{"source": "PubChem BioAssay AID2060349", "about": "(Molecular Pharmacology Branch, DTP, NCI, 2025)", "test_system": "762968-020-R-J2-PDC spheroids viability", "experiment": "Anticancer human tumor 762968-020-R-J2-PDC patient-derived colon carcinoma cell line growth inhibition [TAK]", "conditions": "spheroids with HUVEC and MSC; for pIC50: curve of first compound; for viability, T/C: stronger effect = lower value", "excerpt": "Combinatorial screen of targeted agents with TAK-243 and ipatasertib in multi-cell type tumor spheroids\nA high-throughput screen of multi-cell type tumor spheroids was designed to identify active combinations of targeted small molecules and TAK-243 or ipatasertib. Complex spheroids include a stromal component modeled by human endothelial cells (HUVEC) and fibroblasts modeled by human mesenchymal stem cells (MSCs). The concentration ranges selected for each drug and investigational agent were based upon clinically achievable concentrations if the clinical Cmax of the agent was known.\nCompounds. The drugs and investigational agents: TAK-243 (785004), ipatasertib (767898), everolimus (733504), selumetinib (741078), bortezomib (756655), trametinib (758246), ixazomib (758254), vemurafenib (761431), dabrafenib (764134), sapanisertib (764658), alpelisib (765974), and copanlisib (816437), were obtained from the National Cancer Institute (NCI) Developmental Therapeutics Program Chemical Repository. The FDA-approved anticancer drug set is available from the NCI Developmental Therapeutics Program. […] The stock solutions were prepared in dimethyl sulfoxide (DMSO, Sigma-Aldrich, St. Louis, MO, cat. D2650) at 800-fold the tested concentration and stored at -70 degrees C prior to their use. All drugs and investigational agents were tested over a range starting from a high concentration at or near the clinical Cmax and decreasing in half-log increments. If the clinical Cmax for an agent had not been determined, the highest concentration tested was 10 microM.\nNCI60 Cell Culture. NCI60 cell lines were obtained from the NCI Developmental Therapeutics Program Tumor Repository. For each lot of cells, the Repository performed Applied Biosystems AmpFLSTR Identifiler testing with PCR amplification to confirm consistency with the published Identifier STR profile for each cell line. Cells were kept in continuous culture for no more than 20 passages. The optimal seeding densities for each of the cell lines at each time point assessed were determined prior to performing the concentration response studies. Briefly, the NCI60 human tumor lines were grown as monolayers in RPMI 1640 medium supplemented with 10% FBS and 2 mmol/L L-glutamine.\nAn additional 2 lines were from the NCI60 cell line panel including melanomas, MALME-3M and SK-MEL-2. Pooled donor human umbilical vein endothelial cells (HUVEC, Lonza, cat. CC-2519) and human mesenchymal stem cells (hMSC, Lonza, cat. PT-2501) were purchased from Lonza (Walkersville, MD).\nPDMR cell lines were grown in complete medium (DC medium): Dulbecco's modified Eagle's medium (DMEM)/F12 supplemented with 5% fetal bovine serum (FBS), 2 mM L-glutamine, 100 U/mL penicillin and 100 µg/ml streptomycin, 0.4 µg/ml hydrocortisone, 10 ng/ml epidermal growth factor (EGF) recombinant human protein, 24 µg/mL adenine, and 0.1 mg/mL primocin. During culture from frozen stock vials, PDMR cells were cultured in the same medium containing 10 µM Y-27632 (see Table 3). The PDCs were cultured in complete DMEM/F12 media without 10 microM Y-27632 dihydrochloride for at least two passages prior to the screen. The pooled donor HUVEC and hMSC were cultured in endothelial cell growth medium 2 (PromoCell, Heidelberg, Germany, cat. C-22011) and mesenchymal stem cell growth medium 2 (PromoCell, cat. C-28009), respectively. For all experiments, HUVEC and hMSC were used at passages </=5.\nFor the pre-screen, cell seeding densities were determined from a titration spanning the range from 5,000 to 313 cells per well. The mct-spheroids including 60% malignant cells, 25% HUVEC and 15% MSC dispensed as a mixture into U-bottom Ultra-Low Attachment 384-well plates (Corning, NY)\nHigh-throughput Drug Combination Screening.\nPrior to their inoculation into 384-well plates, malignant cells, HUVEC, and hMSC were removed from T flasks using TrypLE express (Thermo Fisher Scientific, cat. 12605036) and harvested by centrifugation for 5 min at 233 x g. […]", "note": "pIC50: −log10 of the molar value.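 Note: spheroids exposed to drug for 7 days before readout.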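 Throughout, for viability, T/C: 100% = DMSO vehicle control wells.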", "data": [{"smiles": "Cn1cnc2c(F)c(Nc3ccc(Br)cc3Cl)c(C(=O)NOCCO)cc21", "note": "+ CC(C)NCC(C(=O)N1CCN(c2ncnc3c2C(C)CC3O)CC1)c1ccc(Cl)cc1", "values": [{"measurement": "pIC50", "setting": "second compound 0.3 µM", "result": 5.63}, {"measurement": "pIC50", "setting": "second compound 0.949 µM", "result": "< 5.52"}, {"measurement": "pIC50", "setting": "second compound 3 µM", "result": "< 5.52"}, {"measurement": "pIC50", "setting": "second compound 9.49 µM", "result": "< 5.52"}, {"measurement": "pIC50", "setting": "second compound 30 µM", "result": "< 5.52"}, {"measurement": "viability, T/C", "setting": "second compound 0.3 µM, first compound 0.00949 µM", "result": 94.6, "unit": "%"}, {"measurement": "viability, T/C", "setting": "second compound 0.3 µM, first compound 0.03 µM", "result": 95.5, "unit": "%"}, {"measurement": "viability, T/C", "setting": "second compound 0.3 µM, first compound 0.0949 µM", "result": 89.6, "unit": "%"}, {"measurement": "viability, T/C", "setting": "second compound 0.3 µM, first compound 0.3 µM", "result": 84.2, "unit": "%"}, {"measurement": "viability, T/C", "setting": "second compound 0.3 µM, first compound 0.949 µM", "result": 69.9, "unit": "%"}, {"measurement": "viability, T/C", "setting": "second compound 0.3 µM, first compound 3 µM", "result": 44.5, "unit": "%"}, {"measurement": "viability, T/C", "setting": "second compound 0.949 µM, first compound 0.00949 µM", "result": 103, "unit": "%"}, {"measurement": "viability, T/C", "setting": "second compound 0.949 µM, first compound 0.03 µM", "result": 97.5, "unit": "%"}, {"measurement": "viability, T/C", "setting": "second compound 0.949 µM, first compound 0.0949 µM", "result": 87, "unit": "%"}, {"measurement": "viability, T/C", "setting": "second compound 0.949 µM, first compound 0.3 µM", "result": 83.4, "unit": "%"}, {"measurement": "viability, T/C", "setting": "second compound 0.949 µM, first compound 0.949 µM", "result": 74.8, "unit": "%"}, {"measurement": "viability, T/C", "setting": "second compound 0.949 µM, first compound 3 µM", "result": 50.5, "unit": "%"}, {"measurement": "viability, T/C", "setting": "second compound 3 µM, first compound 0.00949 µM", "result": 106, "unit": "%"}, {"measurement": "viability, T/C", "setting": "second compound 3 µM, first compound 0.03 µM", "result": 97.7, "unit": "%"}, {"measurement": "viability, T/C", "setting": "second compound 3 µM, first compound 0.0949 µM", "result": 95.2, "unit": "%"}, {"measurement": "viability, T/C", "setting": "second compound 3 µM, first compound 0.3 µM", "result": 85.8, "unit": "%"}, {"measurement": "viability, T/C", "setting": "second compound 3 µM, first compound 0.949 µM", "result": 72.2, "unit": "%"}, {"measurement": "viability, T/C", "setting": "second compound 3 µM, first compound 3 µM", "result": 58.4, "unit": "%"}, {"measurement": "viability, T/C", "setting": "second compound 9.49 µM, first compound 0.00949 µM", "result": 96.5, "unit": "%"}, {"measurement": "viability, T/C", "setting": "second compound 9.49 µM, first compound 0.03 µM", "result": 83.7, "unit": "%"}, {"measurement": "viability, T/C", "setting": "second compound 9.49 µM, first compound 0.0949 µM", "result": 80.6, "unit": "%"}, {"measurement": "viability, T/C", "setting": "second compound 9.49 µM, first compound 0.3 µM", "result": 79.1, "unit": "%"}, {"measurement": "viability, T/C", "setting": "second compound 9.49 µM, first compound 0.949 µM", "result": 66.3, "unit": "%"}, {"measurement": "viability, T/C", "setting": "second compound 9.49 µM, first compound 3 µM", "result": 55.8, "unit": "%"}, {"measurement": "viability, T/C", "setting": "second compound 30 µM, first compound 0.00949 µM", "result": 82.7, "unit": "%"}, {"measurement": "viability, T/C", "setting": "second compound 30 µM, first compound 0.03 µM", "result": 85.3, "unit": "%"}, {"measurement": "viability, T/C", "setting": "second compound 30 µM, first compound 0.0949 µM", "result": 83.2, "unit": "%"}, {"measurement": "viability, T/C", "setting": "second compound 30 µM, first compound 0.3 µM", "result": 79, "unit": "%"}, {"measurement": "viability, T/C", "setting": "second compound 30 µM, first compound 0.949 µM", "result": 70.5, "unit": "%"}, {"measurement": "viability, T/C", "setting": "second compound 30 µM, first compound 3 µM", "result": 57.8, "unit": "%"}]}, {"smiles": "CCCS(=O)(=O)Nc1ccc(F)c(C(=O)c2c[nH]c3ncc(-c4ccc(Cl)cc4)cc23)c1F", "note": "+ CC(C)NCC(C(=O)N1CCN(c2ncnc3c2C(C)CC3O)CC1)c1ccc(Cl)cc1", "values": [{"measurement": "pIC50", "setting": "second compound 0.3 µM", "result": "< 4.00"}, {"measurement": "pIC50", "setting": "second compound 0.949 µM", "result": 4.63}, {"measurement": "pIC50", "setting": "second compound 3 µM", "result": "< 4.00"}, {"measurement": "pIC50", "setting": "second compound 9.49 µM", "result": "< 4.00"}, {"measurement": "pIC50", "setting": "second compound 30 µM", "result": 4.75}, {"measurement": "viability, T/C", "setting": "second compound 0.3 µM, first compound 0.316 µM", "result": 94.5, "unit": "%"}, {"measurement": "viability, T/C", "setting": "second compound 0.3 µM, first compound 1 µM", "result": 95.2, "unit": "%"}, {"measurement": "viability, T/C", "setting": "second compound 0.3 µM, first compound 3.16 µM", "result": 94.4, "unit": "%"}, {"measurement": "viability, T/C", "setting": "second compound 0.3 µM, first compound 10 µM", "result": 72.3, "unit": "%"}, {"measurement": "viability, T/C", "setting": "second compound 0.3 µM, first compound 31.6 µM", "result": 13.6, "unit": "%"}, {"measurement": "viability, T/C", "setting": "second compound 0.3 µM, first compound 100 µM", "result": 97.5, "unit": "%"}, {"measurement": "viability, T/C", "setting": "second compound 0.949 µM, first compound 0.316 µM", "result": 89.9, "unit": "%"}, {"measurement": "viability, T/C", "setting": "second compound 0.949 µM, first compound 1 µM", "result": 93.2, "unit": "%"}, {"measurement": "viability, T/C", "setting": "second compound 0.949 µM, first compound 3.16 µM", "result": 94.6, "unit": "%"}, {"measurement": "viability, T/C", "setting": "second compound 0.949 µM, first compound 10 µM", "result": 57.5, "unit": "%"}, {"measurement": "viability, T/C", "setting": "second compound 0.949 µM, first compound 31.6 µM", "result": 1.16, "unit": "%"}, {"measurement": "viability, T/C", "setting": "second compound 0.949 µM, first compound 100 µM", "result": 93.7, "unit": "%"}, {"measurement": "viability, T/C", "setting": "second compound 3 µM, first compound 0.316 µM", "result": 97.6, "unit": "%"}, {"measurement": "viability, T/C", "setting": "second compound 3 µM, first compound 1 µM", "result": 93.3, "unit": "%"}, {"measurement": "viability, T/C", "setting": "second compound 3 µM, first compound 3.16 µM", "result": 101, "unit": "%"}, {"measurement": "viability, T/C", "setting": "second compound 3 µM, first compound 10 µM", "result": 71.3, "unit": "%"}, {"measurement": "viability, T/C", "setting": "second compound 3 µM, first compound 31.6 µM", "result": 0.49, "unit": "%"}, {"measurement": "viability, T/C", "setting": "second compound 3 µM, first compound 100 µM", "result": 97.8, "unit": "%"}, {"measurement": "viability, T/C", "setting": "second compound 9.49 µM, first compound 0.316 µM", "result": 91.9, "unit": "%"}, {"measurement": "viability, T/C", "setting": "second compound 9.49 µM, first compound 1 µM", "result": 94.1, "unit": "%"}, {"measurement": "viability, T/C", "setting": "second compound 9.49 µM, first compound 3.16 µM", "result": 89.1, "unit": "%"}, {"measurement": "viability, T/C", "setting": "second compound 9.49 µM, first compound 10 µM", "result": 70.2, "unit": "%"}, {"measurement": "viability, T/C", "setting": "second compound 9.49 µM, first compound 31.6 µM", "result": 18.5, "unit": "%"}, {"measurement": "viability, T/C", "setting": "second compound 9.49 µM, first compound 100 µM", "result": 105, "unit": "%"}, {"measurement": "viability, T/C", "setting": "second compound 30 µM, first compound 0.316 µM", "result": 77.2, "unit": "%"}, {"measurement": "viability, T/C", "setting": "second compound 30 µM, first compound 1 µM", "result": 90.9, "unit": "%"}, {"measurement": "viability, T/C", "setting": "second compound 30 µM, first compound 3.16 µM", "result": 87.4, "unit": "%"}, {"measurement": "viability, T/C", "setting": "second compound 30 µM, first compound 10 µM", "result": 53.6, "unit": "%"}, {"measurement": "viability, T/C", "setting": "second compound 30 µM, first compound 31.6 µM", "result": 2.13, "unit": "%"}, {"measurement": "viability, T/C", "setting": "second compound 30 µM, first compound 100 µM", "result": 90.7, "unit": "%"}]}]}
